What was measured:
Type in all cases: in vivo
[1] = system: Rhipicephalus (Boophilus) microplus larvae (strain Parkhurst, resistant against synthetic pyrethroids); assay: Rhipicephalus (Boophilus) microplus in-vitro contact test, larval cattle tick; details: after 48 hours, read-out: efficacy (larvae dead or moribund); for pest or weed control at 1 µg/cm2, 100 g/ha: 1 μg/cm^2 (=100 g/ha); for pest or weed control at 5 µg/cm2, 500 g/ha: 5 μg/cm^2 (=500 g/ha)
Description: Rhipicephalus (Boophilus) microplus—In-Vitro Contact Tests Larval Cattle Tick (Strain Parkhurst, Resistant Against Synthetic Pyrethroids)
9 mg compound is solved in 1 mL acetone and diluted with acetone to the desired concentration. […] the test solution is filled in 25 mL glass test tubes and homogeneously distributed on the inner walls by rotation and tilting on a shaking device (2 h at 30 rpm). With a compound concentration of 900 ppm, an inner surface of 44.7 cm^2 and a homogeneous distribution, a dose of 5 μg/cm^2 is achieved.
After the solvent has evaporated, each test tube is filled with 20-50 cattle tick larvae (Rhipicephalus microplus), closed with a perforated lid and incubated in a horizontal position at 85% relative humidity and 27° C. in an incubator. After 48 hours efficacy is determined. The larvae are patted on the ground of the tubes and negative geotactic behaviour is recorded.
An efficacy of 100% means all larvae are dead or moribund; 0% means no larvae are dead or moribund.

[2] = system: larvae of the banded cucumber beetle (Diabrotica balteata); assay: Diabrotica balteata spray test; details: 168 h, after 7 days, read-out: efficacy (seedling growth); for pest or weed control at 32 µg/disc, 100 g/ha: 100 g/ha (=32 μg/well); for pest or weed control at 6.4 µg/disc, 20 g/ha: 20 g/ha (=6.4 μg/well)
Description: Diabrotica balteata—Spray Test
Solvent: 78.0 parts by weight of acetone • • 1.5 parts by weight of dimethylformamide
(§1) Emulsifier: alkylarylpolyglycol ether
(§2) To produce a suitable preparation of active compound, 1 part by weight of active compound is mixed with the stated amount of solvent, and the concentrate is diluted with water, containing an emulsifier concentration of 1000 ppm, to the desired concentration. Further test concentrations are prepared by dilution with emulsifier containing water.
Soaked wheat seeds (Triticum aestivum) are placed in a multiple well plate filled with agar and some water and are incubated for 1 day to germinate (5 seeds per well). The germinated wheat seeds are sprayed with a test solution containing the desired concentration of the active ingredient. Afterwards each unit is infected with 10-20 larvae of the banded cucumber beetle (Diabrotica balteata).
After 7 days efficacy in % is determined. 100% means all the seedlings have grown up like in the untreated, uninfected control; 0% means none of the seedlings have grown.

[3] = system: fall armyworm larvae (Spodoptera frugiperda); assay: Spodoptera frugiperda spray test; details: 168 h, maize leaf sections, after 7 days
Description: Spodoptera fruaiperda—Spray Test
Solvent: 78.0 parts by weight acetone • 1.5 parts by weight dimethylformamide
as §1
as §2, with “solvents” for “solvent,”, “and” for “and the concentrate”
Maize (Zea mays) leaf sections are sprayed with a preparation of the active ingredient of the desired concentration. Once dry, the leaf sections are infested with fall armyworm larvae (Spodoptera frugiperda).
After 7 days mortality in % is determined. 100% means all caterpillars have been killed and 0% means none of the caterpillars have been killed.

`CC(NC(=O)c1cncc(C(C)(C)C)c1)c1nccnc1-c1nccs1` (racemic) [Example I-6, (rac)-5-(tert-Butyl)-N-(1-(3-(thiazol-2-yl)pyrazin-2-yl)ethyl)nicotinamide] showed a pest or weed control at 1 µg/cm2, 100 g/ha [1] of 80% and a pest or weed control at 5 µg/cm2, 500 g/ha [1] of 80%.
Work on `CC(NC(=O)c1cc(C(F)(F)F)cc(C(F)(F)F)c1)c1nccnc1-c1ccc(C(=O)N2CCCC2)cn1` (racemic) [Example I-37, (rac)-N-[1-{3-[5-(Pyrrolidine-1-carbonyl)pyridin-2-yl]pyrazin-2-yl}ethyl]-3,5-bis(trifluoromethyl)benzamide] yielded a pest or weed control at 1 µg/cm2, 100 g/ha [1] of 100% and a pest or weed control at 5 µg/cm2, 500 g/ha [1] of 100%.
Work on `CC(NC(=O)c1cc(Cl)cc(C#N)c1)c1nccnc1-c1ccc(C(F)(F)F)cn1` (racemic) [Example I-40, (rac)-3-Chloro-5-cyano-N-[1-{3-[5-(trifluoromethyl)pyridin-2-yl]pyrazin-2-yl}ethyl]benzamide] yielded a pest or weed control at 32 µg/disc, 100 g/ha [2] of 100%.
In the case of `CC(NC(=O)c1cc(Cl)cc(Br)c1)c1nccnc1-c1ccc(C(F)(F)F)cn1` (racemic) [Example I-43, (rac)-3-Bromo-5-chloro-N-[1-{3-[5-(trifluoromethyl)pyridin-2-yl]pyrazin-2-yl}ethyl]benzamide], the pest or weed control at 32 µg/disc, 100 g/ha [2] is reported as 80%.
With `CC(NC(=O)c1cc(Br)cc(OC(F)(F)F)c1)c1nccnc1-c1ccc(C(F)(F)F)cn1` (racemic) [Example I-44, (rac)-3-Bromo-5-(trifluoromethoxy)-N-[1-{3-[5-(trifluoromethyl)pyridin-2-yl]pyrazin-2-yl}ethyl]benzamide] the pest or weed control at 32 µg/disc, 100 g/ha [2] was 100%.
For `CC(NC(=O)c1cc(C(F)(F)F)cc(C(F)(F)F)c1)c1nccnc1-c1ccc(C(F)(F)F)cn1` (racemic) [Example I-45, (rac)-3,5-Bis(trifluoromethyl)-N-[1-{3-[5-(trifluoromethyl)pyridin-2-yl]pyrazin-2-yl}ethyl]benzamide], the mortality at 100 g/ha [3] was 100%.
For `CC(NC(=O)c1cc(Cl)cc(OC(F)(F)F)c1)c1nccnc1-c1ccc(C(F)(F)F)cn1` (racemic) [Example I-47, (rac)-3-Chloro-5-(trifluoromethoxy)-N-[1-{3-[5-(trifluoromethyl)pyridin-2-yl]pyrazin-2-yl}ethyl]benzamide], the mortality at 100 g/ha [3] was 100%.
`CC(NC(=O)c1cc(Cl)cc(C#N)c1)c1nccnc1-c1nccs1` (racemic) [Example I-57, (rac)-3-Chloro-5-cyano-N-{1-[3-(1,3-thiazol-2-yl)pyrazin-2-yl]ethyl}benzamide] gave a pest or weed control at 6.4 µg/disc, 20 g/ha [2] of 80%.
Work on `CC(NC(=O)c1cc(Cl)cc(OC(F)(F)F)c1)c1nccnc1-c1ncc(C(=O)N2CCOCC2)s1` (racemic) [Example I-60, (rac)-3-Chloro-N-[1-{3-[5-(morpholine-4-carbonyl)-1,3-thiazol-2-yl]pyrazin-2-yl}ethyl]-5-(trifluoromethoxy)benzamide] yielded a mortality at 100 g/ha [3] of 83%.
`CC(NC(=O)c1cc(C(F)(F)F)cc(C(F)(F)F)c1)c1nccnc1-c1ncc(C(=O)N2CCC[Si](C)(C)C2)s1` (racemic) [Example I-70, (rac)-N-[1-{3-[5-(3,3-Dimethyl-1,3-azasilinane-1-carbonyl)-1,3-thiazol-2-yl]pyrazin-2-yl}ethyl]-3,5-bis(trifluoromethyl)benzamide] was tested, and the pest or weed control at 32 µg/disc, 100 g/ha [2] was 100%.
With `CC(NC(=O)c1cc(C(F)(F)F)cc(C(F)(F)F)c1)c1nccnc1-c1ncc(C(=O)N2CCCC2)s1` (racemic) [Example I-71, (rac)-N-[1-{3-[5-(Pyrrolidine-1-carbonyl)-1,3-thiazol-2-yl]pyrazin-2-yl}ethyl]-3,5-bis(trifluoromethyl)benzamide] the pest or weed control at 6.4 µg/disc, 20 g/ha [2] was 100% and the pest or weed control at 32 µg/disc, 100 g/ha [2] was 100%.
Work on `Cc1cnc(-c2ncc(C(=O)N(C)CC3CC3)s2)c(C(C)NC(=O)c2cc(C(F)(F)F)cc(C(F)(F)F)c2)n1` (racemic) [Example I-73, (rac)-2-(3-{1-[3,5-Bis(trifluoromethyl)benzamido]ethyl}-5-methylpyrazin-2-yl)-N-(cyclopropylmethyl)-N-methyl-1,3-thiazole-5-carboxamide] yielded a mortality at 100 g/ha [3] of 100%.
`CC(NC(=O)c1cc(C(F)(F)F)cc(C(F)(F)F)c1)c1nccnc1-n1cc(C(=O)N2CCCC2)cn1` (racemic) [Example I-91, N-[(rac)-1-{3-[4-(Pyrrolidine-1-carbonyl)-1H-pyrazol-1-yl]pyrazin-2-yl}ethyl]-3,5-bis(trifluoromethyl)benzamide] was tested, and the pest or weed control at 1 µg/cm2, 100 g/ha [1] was 100% and the pest or weed control at 5 µg/cm2, 500 g/ha [1] was 100%.
Compound `CC(NC(=O)c1cc(C(F)(F)F)cc(C(F)(F)F)c1)c1nccnc1-n1cc(Cl)cn1` (racemic) [Example I-96, N-{(rac)-1-[3-(4-Chloro-1H-pyrazol-1-yl)pyrazin-2-yl]ethyl}-3,5-bis(trifluoromethyl)benzamide] has a pest or weed control at 6.4 µg/disc, 20 g/ha [2] of 100% and a pest or weed control at 32 µg/disc, 100 g/ha [2] of 100%.
`CC(NC(=O)c1cc(Br)cc(OC(F)(F)F)c1)c1nccnc1-n1cc(Cl)cn1` (racemic) [Example I-97, (rac)-3-Bromo-N-{1-[3-(4-chloro-1H-pyrazol-1-yl)pyrazin-2-yl]ethyl}-5-(trifluoromethoxy)benzamide] showed a pest or weed control at 32 µg/disc, 100 g/ha [2] of 100%.
For `CC(NC(=O)c1cc(Cl)cc(S(=O)(=O)C2CC2)c1)c1nccnc1-n1cc(C#N)cn1` (racemic) [Example I-101, (rac)-3-Chloro-N-{1-[3-(4-cyano-1H-pyrazol-1-yl)pyrazin-2-yl]ethyl}-5-(cyclopropanesulfonyl)benzamide], the mortality at 100 g/ha [3] was 100%.
For `CC(NC(=O)c1cc(Cl)cc(OC(F)(F)F)c1)c1nccnc1-n1cc(C#N)cn1` (racemic) [Example I-104, (rac)-3-Chloro-N-{1-[3-(4-cyano-1H-pyrazol-1-yl)pyrazin-2-yl]ethyl}-5-(trifluoromethoxy)benzamide], the pest or weed control at 6.4 µg/disc, 20 g/ha [2] was 100% and the pest or weed control at 32 µg/disc, 100 g/ha [2] was 100%.
`CC(NC(=O)c1cc(Br)cc(I)c1)c1nccnc1-n1cc(C#N)cn1` (racemic) [Example I-112, (rac)-3-Bromo-N-{1-[3-(4-cyano-1H-pyrazol-1-yl)pyrazin-2-yl]ethyl}-5-iodobenzamide] showed a pest or weed control at 32 µg/disc, 100 g/ha [2] of 100%.
`CC(NC(=O)c1cc(Cl)cc(C#N)c1)c1nccnc1-n1cc(C#N)cn1` (racemic) [Example I-121, (rac)-3-Chloro-5-cyano-N-{1-[3-(4-cyano-1H-pyrazol-1-yl)pyrazin-2-yl]ethyl}benzamide] gave a pest or weed control at 32 µg/disc, 100 g/ha [2] of 100%.
`Cc1cnc(C(C)NC(=O)c2cc(C(F)(F)F)cc(C(F)(F)F)c2)c(-c2ncc(C(=O)N3C[C@@H](C)O[C@@H](C)C3)s2)n1` (mixture of isomers) [Example I-126, (rac)-N-[1-(3-{5-[cis-2,6-Dimethylmorpholine-4-carbonyl]-1,3-thiazol-2-yl}-5-methylpyrazin-2-yl)ethyl]-3,5-bis(trifluoromethyl)benzamide] showed a pest or weed control at 1 µg/cm2, 100 g/ha [1] of 100%, a pest or weed control at 5 µg/cm2, 500 g/ha [1] of 100% and a pest or weed control at 32 µg/disc, 100 g/ha [2] of 100%.
Compound `Cc1cnc(-c2ncc(C(=O)N3C[C@@H](C)O[C@@H](C)C3)s2)c(C(C)NC(=O)c2cc(C(F)(F)F)cc(C(F)(F)F)c2)n1` (mixture of isomers) [Example I-127, (rac)-N-[1-(3-{5-[cis-2,6-dimethylmorpholine-4-carbonyl]-1,3-thiazol-2-yl}-6-methylpyrazin-2-yl)ethyl]-3,5-bis(trifluoromethyl)benzamide] has a pest or weed control at 1 µg/cm2, 100 g/ha [1] of 100% and a pest or weed control at 5 µg/cm2, 500 g/ha [1] of 100%.
Work on `CC(NC(=O)c1cc(Cl)cc(C#N)c1)c1nccnc1-c1ccccn1` (stereo not shown) [Example I-18] yielded a pest or weed control at 32 µg/disc, 100 g/ha [2] of 100%.
Compound `COc1ccc(-c2nccnc2C(C)NC(=O)c2cc(C(F)(F)F)cc(C(F)(F)F)c2)nc1` (stereo not shown) [Example I-26] has a pest or weed control at 5 µg/cm2, 500 g/ha [1] of 90%, a pest or weed control at 6.4 µg/disc, 20 g/ha [2] of 100% and a pest or weed control at 32 µg/disc, 100 g/ha [2] of 100%.
In the case of `COc1ccc(-c2nccnc2C(C)NC(=O)c2cc(Cl)cc(C(F)(F)F)c2)nc1` (stereo not shown) [Example I-29], the pest or weed control at 5 µg/cm2, 500 g/ha [1] is reported as 90%, the pest or weed control at 6.4 µg/disc, 20 g/ha [2] is reported as 100% and the pest or weed control at 32 µg/disc, 100 g/ha [2] is reported as 100%.
